34 molecules from ChEMBL document CHEMBL5291721, “A preclinical secondary pharmacology resource illuminates target-adverse drug reaction associations of marketed drugs” (Nat Commun, 2023) can be followed below.

Structures are written as SMILES.

What is called AC50 is the concentration at which the activity in the assay is half-maximal.

The target in one experiment is T1, Adenosine receptor A3 (Homo sapiens, UniProt P0DMS8).
T1 sequence (P0DMS8 whole entry): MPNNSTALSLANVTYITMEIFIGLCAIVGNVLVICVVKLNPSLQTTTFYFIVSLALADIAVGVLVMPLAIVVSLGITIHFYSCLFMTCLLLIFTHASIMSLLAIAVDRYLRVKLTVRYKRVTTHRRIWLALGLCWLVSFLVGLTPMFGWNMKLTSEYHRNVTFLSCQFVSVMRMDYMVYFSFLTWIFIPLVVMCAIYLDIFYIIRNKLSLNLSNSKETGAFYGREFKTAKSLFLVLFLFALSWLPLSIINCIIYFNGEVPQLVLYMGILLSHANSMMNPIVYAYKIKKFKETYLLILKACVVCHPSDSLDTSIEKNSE

A further experiment has as its target Bile salt export pump (Homo sapiens, UniProt O95342). It counts as functional.
The target in experiment [1] is 3',5'-cyclic-AMP phosphodiesterase 4D (Homo sapiens, UniProt Q08499). It counts as functional.
3',5'-cyclic-AMP phosphodiesterase 4D, sequence (Q08499 whole entry): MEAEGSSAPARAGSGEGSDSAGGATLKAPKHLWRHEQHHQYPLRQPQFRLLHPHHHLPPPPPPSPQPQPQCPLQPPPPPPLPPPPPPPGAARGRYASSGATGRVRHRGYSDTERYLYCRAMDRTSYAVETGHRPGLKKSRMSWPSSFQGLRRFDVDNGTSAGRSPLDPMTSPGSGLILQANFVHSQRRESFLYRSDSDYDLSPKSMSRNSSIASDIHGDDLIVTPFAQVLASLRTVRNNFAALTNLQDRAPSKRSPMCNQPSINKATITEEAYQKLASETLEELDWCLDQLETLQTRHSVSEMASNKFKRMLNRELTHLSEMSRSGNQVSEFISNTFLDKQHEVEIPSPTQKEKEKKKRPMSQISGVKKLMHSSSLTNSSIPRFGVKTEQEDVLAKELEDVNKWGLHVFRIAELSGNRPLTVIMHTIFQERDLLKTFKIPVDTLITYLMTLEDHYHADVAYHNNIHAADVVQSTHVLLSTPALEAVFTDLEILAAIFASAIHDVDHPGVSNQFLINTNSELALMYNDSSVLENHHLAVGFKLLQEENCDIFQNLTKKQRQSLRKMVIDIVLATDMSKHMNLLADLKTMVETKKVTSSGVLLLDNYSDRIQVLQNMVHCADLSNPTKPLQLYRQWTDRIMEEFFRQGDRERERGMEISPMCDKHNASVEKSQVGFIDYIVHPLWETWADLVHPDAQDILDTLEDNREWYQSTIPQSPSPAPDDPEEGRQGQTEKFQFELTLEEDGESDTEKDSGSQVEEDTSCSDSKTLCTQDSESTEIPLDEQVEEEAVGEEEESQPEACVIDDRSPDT
In experiment [2] the target is Kappa-type opioid receptor (Homo sapiens, UniProt P41145).
Kappa-type opioid receptor, sequence (P41145 whole entry): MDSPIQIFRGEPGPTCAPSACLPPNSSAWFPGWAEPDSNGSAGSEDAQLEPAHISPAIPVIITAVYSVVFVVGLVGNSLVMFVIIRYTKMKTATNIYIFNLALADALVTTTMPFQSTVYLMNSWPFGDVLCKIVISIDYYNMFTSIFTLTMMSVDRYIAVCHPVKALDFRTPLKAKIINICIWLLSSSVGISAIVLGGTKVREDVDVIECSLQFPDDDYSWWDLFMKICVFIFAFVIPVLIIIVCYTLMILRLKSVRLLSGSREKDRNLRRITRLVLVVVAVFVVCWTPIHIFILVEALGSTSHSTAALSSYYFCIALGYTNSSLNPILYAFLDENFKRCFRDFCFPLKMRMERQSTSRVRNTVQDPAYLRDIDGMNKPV
Experiment [3] addresses T2, Alpha-2C adrenergic receptor (Homo sapiens, UniProt P18825).
T2 sequence (P18825 whole entry): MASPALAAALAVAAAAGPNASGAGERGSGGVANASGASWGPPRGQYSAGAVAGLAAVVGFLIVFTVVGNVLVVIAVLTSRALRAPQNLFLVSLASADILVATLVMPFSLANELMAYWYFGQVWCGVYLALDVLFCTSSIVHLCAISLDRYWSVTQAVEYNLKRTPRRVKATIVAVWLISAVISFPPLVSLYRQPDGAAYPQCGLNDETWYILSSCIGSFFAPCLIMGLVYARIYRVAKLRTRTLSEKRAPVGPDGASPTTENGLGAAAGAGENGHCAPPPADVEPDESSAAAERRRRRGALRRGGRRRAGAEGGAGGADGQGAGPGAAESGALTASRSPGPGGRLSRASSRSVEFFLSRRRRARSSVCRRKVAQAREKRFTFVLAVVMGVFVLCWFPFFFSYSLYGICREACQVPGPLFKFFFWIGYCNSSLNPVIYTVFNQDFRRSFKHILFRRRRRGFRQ
It counts as functional.

Experiment [4] addresses Gamma-aminobutyric acid receptor subunit alpha-1 (Rattus norvegicus, UniProt P62813).
Experiment [5] concerns the target T3, Alpha-2A adrenergic receptor (Homo sapiens, UniProt P08913).
T3 sequence (P08913 whole entry): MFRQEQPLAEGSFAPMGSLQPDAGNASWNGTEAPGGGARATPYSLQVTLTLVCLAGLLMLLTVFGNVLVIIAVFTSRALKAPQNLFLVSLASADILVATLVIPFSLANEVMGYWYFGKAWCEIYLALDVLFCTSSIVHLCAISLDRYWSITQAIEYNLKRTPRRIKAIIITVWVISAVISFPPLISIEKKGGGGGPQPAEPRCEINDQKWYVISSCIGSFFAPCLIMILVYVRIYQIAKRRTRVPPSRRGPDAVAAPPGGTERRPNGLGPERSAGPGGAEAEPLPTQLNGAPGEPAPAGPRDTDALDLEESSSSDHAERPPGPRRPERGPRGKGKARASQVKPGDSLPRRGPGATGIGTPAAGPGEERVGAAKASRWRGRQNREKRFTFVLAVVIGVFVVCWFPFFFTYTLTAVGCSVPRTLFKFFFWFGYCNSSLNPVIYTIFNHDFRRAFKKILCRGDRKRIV
It counts as functional, cell-based.

Experiment [6] has as its target T4, Gastrin/cholecystokinin type B receptor (Homo sapiens, UniProt P32239).
T4 sequence (P32239 whole entry): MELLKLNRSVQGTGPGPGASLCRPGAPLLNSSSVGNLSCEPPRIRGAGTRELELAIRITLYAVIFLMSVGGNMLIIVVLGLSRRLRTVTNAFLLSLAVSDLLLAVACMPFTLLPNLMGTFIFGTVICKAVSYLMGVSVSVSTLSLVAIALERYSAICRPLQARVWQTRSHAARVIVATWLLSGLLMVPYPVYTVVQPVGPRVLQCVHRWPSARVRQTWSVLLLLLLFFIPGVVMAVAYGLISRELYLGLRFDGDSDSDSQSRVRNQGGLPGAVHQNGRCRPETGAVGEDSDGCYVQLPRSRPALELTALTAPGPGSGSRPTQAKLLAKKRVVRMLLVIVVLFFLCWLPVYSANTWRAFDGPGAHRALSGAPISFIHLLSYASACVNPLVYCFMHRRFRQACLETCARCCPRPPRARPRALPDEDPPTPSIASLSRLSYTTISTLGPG

The target in a further experiment is T5, Endothelin-1 receptor (Homo sapiens, UniProt P25101).
T5 sequence (P25101 whole entry): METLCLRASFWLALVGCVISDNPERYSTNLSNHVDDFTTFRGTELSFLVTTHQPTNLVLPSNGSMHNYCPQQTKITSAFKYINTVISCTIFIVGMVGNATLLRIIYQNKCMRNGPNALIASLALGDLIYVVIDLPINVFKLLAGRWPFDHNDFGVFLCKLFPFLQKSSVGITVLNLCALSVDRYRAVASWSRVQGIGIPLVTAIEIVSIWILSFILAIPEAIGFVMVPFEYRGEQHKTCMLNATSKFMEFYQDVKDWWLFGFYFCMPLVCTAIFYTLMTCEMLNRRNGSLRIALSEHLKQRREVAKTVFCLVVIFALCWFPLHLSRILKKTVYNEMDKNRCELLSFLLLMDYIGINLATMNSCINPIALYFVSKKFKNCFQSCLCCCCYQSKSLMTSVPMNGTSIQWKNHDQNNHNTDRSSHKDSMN

The target of experiment [7] is T6, Neuropeptide Y receptor type 1 (Homo sapiens, UniProt P25929).
T6 sequence (P25929 whole entry): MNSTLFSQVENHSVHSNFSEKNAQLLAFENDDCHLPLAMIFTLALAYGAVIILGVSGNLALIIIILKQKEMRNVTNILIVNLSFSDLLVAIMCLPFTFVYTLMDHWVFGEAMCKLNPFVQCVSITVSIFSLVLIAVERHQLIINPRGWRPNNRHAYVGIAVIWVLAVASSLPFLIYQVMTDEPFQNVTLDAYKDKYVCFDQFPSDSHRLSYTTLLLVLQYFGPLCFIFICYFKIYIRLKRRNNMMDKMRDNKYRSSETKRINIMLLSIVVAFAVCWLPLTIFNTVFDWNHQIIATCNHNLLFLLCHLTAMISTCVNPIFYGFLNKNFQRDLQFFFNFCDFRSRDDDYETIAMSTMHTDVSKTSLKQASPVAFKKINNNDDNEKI
Also: assay procedure not described here.

Gamma-aminobutyric acid receptor subunit alpha-1, sequence (P62813 whole entry): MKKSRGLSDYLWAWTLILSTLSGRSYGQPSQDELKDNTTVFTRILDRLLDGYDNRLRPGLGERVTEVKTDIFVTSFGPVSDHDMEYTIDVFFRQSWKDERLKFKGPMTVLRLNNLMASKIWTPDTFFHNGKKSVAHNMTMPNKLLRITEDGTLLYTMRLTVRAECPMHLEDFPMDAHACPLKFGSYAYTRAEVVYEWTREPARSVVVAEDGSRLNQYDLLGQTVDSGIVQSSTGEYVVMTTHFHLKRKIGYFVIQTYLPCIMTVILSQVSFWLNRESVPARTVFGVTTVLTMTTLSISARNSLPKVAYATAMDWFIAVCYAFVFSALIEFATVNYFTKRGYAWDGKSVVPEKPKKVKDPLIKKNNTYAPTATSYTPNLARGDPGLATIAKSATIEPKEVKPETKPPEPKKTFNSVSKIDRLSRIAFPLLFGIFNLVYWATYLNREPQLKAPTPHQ
Bile salt export pump, sequence (O95342 whole entry): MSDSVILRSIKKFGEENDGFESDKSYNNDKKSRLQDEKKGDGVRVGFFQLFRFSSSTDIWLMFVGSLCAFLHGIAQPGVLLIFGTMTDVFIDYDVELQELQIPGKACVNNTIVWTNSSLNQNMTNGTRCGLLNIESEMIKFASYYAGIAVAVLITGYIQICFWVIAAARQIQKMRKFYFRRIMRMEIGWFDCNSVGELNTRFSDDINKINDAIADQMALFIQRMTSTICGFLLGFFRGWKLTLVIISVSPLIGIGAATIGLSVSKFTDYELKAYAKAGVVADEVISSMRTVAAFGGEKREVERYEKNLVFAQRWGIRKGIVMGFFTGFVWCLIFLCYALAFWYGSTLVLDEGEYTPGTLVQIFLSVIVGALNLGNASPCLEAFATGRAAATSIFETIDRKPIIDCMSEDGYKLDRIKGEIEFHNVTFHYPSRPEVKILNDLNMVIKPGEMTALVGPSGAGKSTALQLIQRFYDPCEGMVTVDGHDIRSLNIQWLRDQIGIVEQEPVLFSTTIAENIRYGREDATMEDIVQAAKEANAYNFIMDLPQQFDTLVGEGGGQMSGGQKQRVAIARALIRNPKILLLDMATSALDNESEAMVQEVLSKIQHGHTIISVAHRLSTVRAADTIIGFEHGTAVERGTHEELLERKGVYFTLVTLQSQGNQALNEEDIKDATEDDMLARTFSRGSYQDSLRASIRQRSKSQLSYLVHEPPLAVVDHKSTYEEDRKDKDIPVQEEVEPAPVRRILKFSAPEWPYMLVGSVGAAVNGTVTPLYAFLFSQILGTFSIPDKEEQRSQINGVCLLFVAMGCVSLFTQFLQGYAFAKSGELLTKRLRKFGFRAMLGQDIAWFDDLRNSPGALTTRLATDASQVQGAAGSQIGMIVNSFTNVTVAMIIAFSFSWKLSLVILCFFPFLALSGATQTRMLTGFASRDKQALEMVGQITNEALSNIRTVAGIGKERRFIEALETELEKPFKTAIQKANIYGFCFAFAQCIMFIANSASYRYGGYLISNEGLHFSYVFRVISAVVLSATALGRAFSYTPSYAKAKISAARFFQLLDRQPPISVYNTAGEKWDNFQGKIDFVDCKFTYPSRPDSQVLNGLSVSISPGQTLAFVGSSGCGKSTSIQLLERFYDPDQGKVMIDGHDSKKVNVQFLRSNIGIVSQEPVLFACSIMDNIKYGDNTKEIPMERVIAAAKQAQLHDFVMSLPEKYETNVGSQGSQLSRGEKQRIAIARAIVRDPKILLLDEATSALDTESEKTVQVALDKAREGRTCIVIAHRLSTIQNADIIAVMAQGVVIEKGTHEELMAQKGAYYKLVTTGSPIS

For the molecule `CC[C@@H]1C[C@]1(NC(=O)[C@@H]1C[C@@H]2CN1C(=O)[C@H](C(C)(C)C)NC(=O)OCC(C)(C)CCCCc1cccc3c1CN(C3)C(=O)O2)C(=O)NS(=O)(=O)C1CC1`, the activity at Adenosine receptor A3 was half-maximal at 12.6 µM (AC50).
Regarding `CC(=O)NCCCCCC(=O)O` [ACEXAMIC ACID], the concentration at half-maximal activity (AC50) at Adenosine receptor A3 was > 30 µM.
As for `C=C(C)CNc1ccc(C(C)C(=O)O)cc1` (stereo not drawn) [ALMINOPROFEN], on Adenosine receptor A3, the AC50 is > 30 µM.
For `Nc1c(CC(=O)O)cccc1C(=O)c1ccc(Br)cc1` [BROMFENAC], the AC50 on Bile salt export pump is 88 µM.
`CC(C)NC(=N)NC(=N)Nc1ccc(Cl)c(Cl)c1` [CHLORPROGUANIL]: the AC50 in experiment [1] was > 30 µM; in experiment [2], > 30 µM; in experiment [3], 8.9 µM; in experiment [4] it was > 30 µM; in [5], > 30 µM.
Take `Cc1cc(C2CCCCC2)n(O)c(=O)c1` [CICLOPIROX]: the AC50 (in experiment [1]; in [3]; at Adenosine receptor A3) was > 30 µM throughout.
Take `C[N+](C)(C)CCOP(=O)(O)OP(=O)([O-])OC[C@H]1O[C@@H](n2ccc(N)nc2=O)[C@H](O)[C@@H]1O` [CITICOLINE]: the AC50 in experiment [1], in [2], in experiment [3], in [4] and in experiment [5] was > 30 µM each time.
Regarding `C[C@H]1O[C@@H](O[C@H]2CC[C@@]3(C)[C@H](CC[C@@H]4[C@@H]3C[C@@H](O)[C@]3(C)[C@@H](C5=CC(=O)OC5)CC[C@]43O)C2)C[C@H](O)[C@@H]1O[C@H]1C[C@H](O)[C@H](O[C@H]2C[C@H](O)[C@H](O[C@@H]3O[C@H](CO)[C@@H](O)[C@H](O)[C@H]3O)[C@@H](C)O2)[C@@H](C)O1` [DESLANOSIDE], at Adenosine receptor A3, the AC50 is > 30 µM.
Same read-out and setting: then `CCCCc1oc2ccc(NS(C)(=O)=O)cc2c1C(=O)c1ccc(OCCCN(CCCC)CCCC)cc1` [DRONEDARONE], with 1.54 µM.
In the case of `O=C(O)Cc1ccccc1Oc1ccc(Cl)cc1Cl` [FENCLOFENAC], the AC50 is > 10 µM in experiment [1]; > 30 µM in experiment [6]; > 10 µM in experiment [2]; > 10 µM in [3]; > 30 µM at Adenosine receptor A3; > 10 µM in experiment [4]. Besides, the values for the AC50 (in experiment [5]; on Endothelin-1 receptor; in experiment [7]) were > 10 µM, > 30 µM and > 30 µM, respectively.
With `CC(C)C(=O)Oc1ccc(CO)cc1[C@H](CCN(C(C)C)C(C)C)c1ccccc1` [FESOTERODINE], on Adenosine receptor A3, the AC50 is > 30 µM.
Same read-out and setting: then `CC1(C)O[C@@H]2C[C@H]3[C@@H]4C[C@H](F)C5=CC(=O)C=C[C@]5(C)[C@@]4(F)[C@@H](O)C[C@]3(C)[C@]2(C(=O)CO)O1` [FLUOCINOLONE ACETONIDE], with > 30 µM.
With `O=C(O)P(=O)(O)O` [FOSCARNET], the concentration at half-maximal activity (AC50) at Adenosine receptor A3 is > 30 µM.
Regarding `COc1ccccc1OC1(C)OC(=O)c2ccccc2O1` (stereo not drawn) [GUAIMESAL], the AC50 (in experiment [6]; on Endothelin-1 receptor; in experiment [7]) was > 30 µM throughout.
In the case of `N=C(N)N/N=C/c1c(Cl)cccc1Cl` [GUANABENZ], the AC50 on Adenosine receptor A3 was > 30 µM.
For the molecule `C[N+](C)(CCCCCC[N+](C)(C)C1c2ccccc2-c2ccccc21)C1c2ccccc2-c2ccccc21` [HEXAFLUORENIUM], at Adenosine receptor A3, the AC50 was > 30 µM.
Still for that read-out and setting: then `CCCCC(CC)CN1CN(CC(CC)CCCC)CC(C)(N)C1` (stereo not drawn) [HEXETIDINE], with 10.8 µM; and `COc1c2occc2c(OC)c2c(=O)cc(C)oc12` [KHELLIN], with > 30 µM.
On the same count and under the same terms, then `CC(C)[C@@H]1CC[C@@H](C)C[C@H]1O` [LEVOMENTHOL], with > 30 µM.
On the same count and under the same terms, under `COC(=O)[C@@H](N)Cc1ccc(O)c(O)c1` [MELEVODOPA] stands > 30 µM; under `C=N[C@@H](C(=O)N[C@@H]1C(=O)N2[C@@H]1SC(C)(C)[C@@H]2C(=O)O)c1ccccc1` [METAMPICILLIN], > 30 µM.
As to `O=C(NNCS(=O)(=O)O)c1ccncc1` [METHANIAZIDE], the AC50 at Adenosine receptor A3 was > 30 µM.
The same measure, in the same setting: under `Cc1cc(=O)[nH]c(=S)[nH]1` [METHYLTHIOURACIL] stands > 30 µM; under `CCNC(=O)/C=C(C)/C=C/C=C(C)/C=C/c1c(C)cc(OC)c(C)c1C` [MOTRETINIDE], 2.24 µM; under `COc1ccc2[nH]c([S+]([O-])Cc3ncc(C)c(OC)c3C)nc2c1` (stereo not drawn) [OMEPRAZOLE], 2.88 µM.
On the same count and under the same terms, then `CCCCC1C(=O)N(c2ccccc2)N(c2ccc(O)cc2)C1=O` (stereo not drawn) [OXYPHENBUTAZONE ANHYDROUS], with > 30 µM; and `O=C(O)CN(CCN(CC(=O)O)CC(=O)O)CCN(CC(=O)O)CC(=O)O` [PENTETIC ACID], with > 30 µM.
Turning to `Nc1cccc2c1C(=O)N(C1CCC(=O)NC1=O)C2=O` (stereo not drawn) [POMALIDOMIDE], the AC50 at Adenosine receptor A3 was > 30 µM.
Take `C[Se]CC[C@H](N)C(=O)O` [SELENOMETHIONINE]: at Adenosine receptor A3, the AC50 was > 30 µM.
`Cc1ccsc1C(=CCCN1CCC[C@@H](C(=O)O)C1)c1sccc1C` [TIAGABINE]: the AC50 at Adenosine receptor A3 was > 30 µM.
Still for that read-out and setting: under `C[C@]12C=CC(=O)C=C1CC[C@H]1[C@@H]3C[C@@H](O)[C@](O)(C(=O)CO)[C@@]3(C)C[C@H](O)[C@@]12F` [TRIAMCINOLONE] stands > 30 µM.
For `CC(C)C[C@H](NC(=O)[C@@H](O)[C@H](N)Cc1ccccc1)C(=O)O` [UBENIMEX], the AC50 in experiment [1], in experiment [2], in [3], in [4] and in experiment [5] was > 30 µM each time.
Regarding `CC[C@]12CCCN3CCc4c(n(c5ccccc45)[C@@](O)(C(=O)OC)C1)[C@@H]32` [VINCAMINE], on Adenosine receptor A3, the AC50 was > 30 µM.
The same measure, in the same setting: then `CCC1=C[C@@H]2CN(C1)Cc1c([nH]c3ccccc13)[C@@](C(=O)OC)(c1cc3c(cc1OC)N(C)[C@H]1[C@@](O)(C(=O)OC)[C@H](OC(C)=O)[C@]4(CC)C=CCN5CC[C@]31[C@@H]54)C2` [VINORELBINE], with > 30 µM.
